We go through four compounds from patent US8383581B2, “Short-chain peptides as parathyroid hormone (PTH) receptor agonist” (Cadila Healthcare Limited, priority 2009, dated 2013).

Where a SMILES comes first, the peptide text is derived from it. [ ]: non-standard residue; d: D form. ξ: configuration not given here. αMePhe(2,6-F2) = C[C@](N)(Cc1c(F)cccc1F)C(=O)O; ξαMePhe(2,6-F2) = CC(N)(Cc1c(F)cccc1F)C(=O)O; αMePhe(2-F) = C[C@](N)(Cc1ccccc1F)C(=O)O; ξαMePhe(2-F) = CC(N)(Cc1ccccc1F)C(=O)O; hArg = N=C(N)NCCCC[C@H](N)C(=O)O; Cit = NC(=O)NCCC[C@H](N)C(=O)O; ξαMeF = CC(N)(Cc1ccccc1)C(=O)O; Nle = CCCC[C@H](N)C(=O)O; Ac5c = NC1(C(=O)O)CCCC1; Ac3c = NC1(C(=O)O)CC1; Aib = CC(C)(N)C(=O)O

Format in all cases: in vitro ADME
The nature of data set [1]: Stability of peptides in human plasma. As to conditions: human, plasma; for metabolised at 24 h, 2 μM: pH 7.8. In a few lines:
(§1)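 Peptides at 2 μM final incubated 0–24 h at 37 °C (50 mM triethanolamine-HCl, pH 7.8) in each matrix, matrix level set to degrade ~50% PTH(1-34) in 1 h; TFA-quenched, C18 HPLC at 206 nm with ESI-MS peak identification; percent degradation from peak areas at each time point.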

Data set [2] is described as follows: Stability of peptides in simulated gastric fluid (pH 1.5; HCl, NaCl and Pepsin). As to conditions: pH 1.5; for % degradation of peptides in 24 h when incubated with simulated gastric fluid: 2 μM.
Data set [3] in a line: Stability of peptides in simulated intestinal fluid (pH 7.5). The note with it: pH 7.5; for half-life (t1/2) in simulated intestinal fluid: simulated gi fluid; for % degradation of peptides in 24 h when incubated with simulated intestinal fluid: 2 μM. In a few lines: as §1
A short description of data set [4]: Stability of peptides in human liver microsomes. As to conditions: human, microsomes; for % degradation of peptides in 24 h when incubated with liver microsomes: 2 μM, pH 7.8. In a few lines: as §1

For `CCCC[C@H](NC(=O)C(C)(Cc1c(F)cccc1F)NC(=O)[C@H](CCC(N)=O)NC(=O)[C@@H](NC(=O)[C@H](CCC(=O)O)NC(=O)C(C)(C)NC(=O)[C@@H](NC(=O)C1(N)CCCC1)C(C)C)[C@@H](C)CC)C(=O)N[C@@H](Cc1c[nH]cn1)C(=O)N[C@@H](CCC(N)=O)C(=O)N[C@@H](CCCCNC(=N)N)C(=O)NC(C)(C)C(=O)NC(C)(Cc1c(F)cccc1F)C(=O)NC(C)(Cc1c(F)cccc1F)C(N)=O` (some centres unmarked) [Seq. ID. 240] (H-[Ac5c]V[Aib]EIQ[ξαMePhe(2,6-F2)][Nle]HQ[hArg][Aib][ξαMePhe(2,6-F2)][ξαMePhe(2,6-F2)]-NH2), in data set [1], the half-life amounted to 8 h and the metabolised at 24 h, 2 μM stood at 71%. Also, the “% degradation of peptides in 24 h when incubated with simulated gastric fluid” value (from here on “% degradation … with simulated gastric fluid”) in data set [2] is 14%. Moreover, the “half-life (t1/2) in simulated gastric fluid” value in data set [2] (simulated gi fluid) is “(8) h”. Also, in data set [3], the “half-life (t1/2) in simulated intestinal fluid” value is on record as “(6) h” and the “% degradation of peptides in 24 h when incubated with simulated intestinal fluid” value (“% degradation … with simulated intestinal fluid” for short) is 40%. Moreover, in data set [4], the half-life is 1 h and the “% degradation of peptides in 24 h when incubated with liver microsomes” value (“% degradation … with liver microsomes” below) is listed as 78%.

In data set [1], `CCCC[C@H](NC(=O)[C@](C)(Cc1ccccc1F)NC(=O)[C@H](CCC(N)=O)NC(=O)[C@@H](NC(=O)[C@H](CCC(=O)O)NC(=O)C(C)(C)NC(=O)[C@@H](NC(=O)C(C)(C)N)C(C)C)[C@@H](C)CC)C(=O)N[C@@H](Cc1c[nH]cn1)C(=O)N[C@@H](CCC(N)=O)C(=O)N[C@@H](CCCCNC(=N)N)C(=O)NC(C)(C)C(=O)N[C@@H](CCCNC(N)=O)C(=O)N[C@@](C)(Cc1c(F)cccc1F)C(N)=O` [Seq. ID. 142] (H-[Aib]V[Aib]EIQ[αMePhe(2-F)][Nle]HQ[hArg][Aib][Cit][αMePhe(2,6-F2)]-NH2) gave a half-life of 8 h and a metabolised at 24 h, 2 μM of 80%. The “% degradation … with simulated gastric fluid” value in data set [2] is on record as 13%. In data set [2] (simulated gi fluid), the “half-life (t1/2) in simulated gastric fluid” value is listed as “(8) h”. Further, in data set [3], the “half-life (t1/2) in simulated intestinal fluid” value was “(6) h” and the “% degradation … with simulated intestinal fluid” value is 50%. Moreover, in data set [4], the half-life worked out at 1 h and the “% degradation … with liver microsomes” value is 82%.

Turning to `CC[C@H](C)[C@H](NC(=O)[C@H](CCC(=O)O)NC(=O)C(C)(C)NC(=O)[C@@H](NC(=O)C1(N)CC1)C(C)C)C(=O)N[C@@H](CCC(N)=O)C(=O)N[C@@H](CC(C)C)C(=O)N[C@@H](CCSC)C(=O)N[C@@H](Cc1c[nH]cn1)C(=O)N[C@@H](CCC(N)=O)C(=O)N[C@@H](CCCCNC(=N)N)C(=O)NC(C)(C)C(=O)N[C@@H](CCCCN)C(=O)NC(C)(Cc1ccccc1)C(N)=O` (some centres unmarked) [Seq. ID. 14] (H-[Ac3c]V[Aib]EIQLMHQ[hArg][Aib]K[ξαMeF]-NH2), in data set [1], the half-life is 8 h and the metabolised at 24 h, 2 μM came out at 69%. The “% degradation … with simulated gastric fluid” value in data set [2] is recorded as 11%. This compound showed a half-life in data set [2] (simulated gi fluid) of 7 h. For the same compound, in data set [3], the “half-life (t1/2) in simulated intestinal fluid” value is listed as “(6) h” and the “% degradation … with simulated intestinal fluid” value is 43%. Also, in data set [4], the half-life was determined as 2 h and the “% degradation … with liver microsomes” value was 77%.

In data set [1], `CCCC[C@H](NC(=O)C(C)(Cc1ccccc1F)NC(=O)[C@H](CCC(N)=O)NC(=O)[C@@H](NC(=O)[C@H](CCC(=O)O)NC(=O)C(C)(C)NC(=O)[C@@H](NC(=O)C1(N)CCCC1)C(C)C)[C@@H](C)CC)C(=O)N[C@@H](Cc1c[nH]cn1)C(=O)N[C@@H](CCC(N)=O)C(=O)NC(C)(C)C(=O)NC(C)(C)C(=O)NC(C)(Cc1c(F)cccc1F)C(=O)NC(C)(Cc1c(F)cccc1F)C(N)=O` (some centres unmarked) [Seq. ID. 580] (H-[Ac5c]V[Aib]EIQ[ξαMePhe(2-F)][Nle]HQ[Aib][Aib][ξαMePhe(2,6-F2)][ξαMePhe(2,6-F2)]-NH2) had a half-life of 8 h and a metabolised at 24 h, 2 μM of 75%. Further, the “% degradation … with simulated gastric fluid” value in data set [2] is 12%. In addition, the “half-life (t1/2) in simulated gastric fluid” value in data set [2] (simulated gi fluid) is “(8) h”. In addition, in data set [3], the “half-life (t1/2) in simulated intestinal fluid” value is “(6) h” and the “% degradation … with simulated intestinal fluid” value is listed as 46%. Also, in data set [4], the half-life is 1 h and the “% degradation … with liver microsomes” value is given as 83%.
